Source: publication PMC4769701, “Discovery and characterization of a high-affinity and high-specificity peptide ligand LXY30 for in vivo targeting of α3 integrin-expressing human tumors” (EJNMMI Research, 2016)
Positions of bridges follow the written chain, without caps; N, C: chain ends. Non-standard residues stand in square brackets, D forms with d. Residues, ends and D or L forms follow the SMILES beside them. Phe(3,4,5-F3) = N[C@@H](Cc1cc(F)c(F)c(F)c1)C(=O)O; Phe(3,5-F2) = N[C@@H](Cc1cc(F)cc(F)c1)C(=O)O; Hyp = O=C(O)[C@@H]1C[C@@H](O)CN1

Assays:
[1] = system: subcutaneous U-87MG xenograft tumors; assay: In vivo NIRF optical imaging, subcutaneous xenograft; design: species or system nude mice; settings: for improvement in tumor targeting over LXY1: optical imaging, U-87MG glioblastoma xenograft model, data not shown
From the text: Halogen lamp light source was set to maximum.

[2] = molecular target: T1, α3β1 integrin-expressing U-87MG glioblastoma cells (Homo sapiens, UniProt P26006); assay: biochemical; type: binding; settings: for Relative binding index: peptide 0.4 μM competing with 0.5 μM LXY1-biotin on U-87MG cells, relative to LXY1, greater RBI = higher affinity; for IC50: series of concentrations competing with 0.5 μM LXY1-biotin binding to U-87MG cells
T1 construct: we incubated U-87MG cells which express α3β1 integrin; endogenous in cells; host or cells: U-87MG human glioblastoma cells
T1 sequence (P26006 33-872 limits assumed): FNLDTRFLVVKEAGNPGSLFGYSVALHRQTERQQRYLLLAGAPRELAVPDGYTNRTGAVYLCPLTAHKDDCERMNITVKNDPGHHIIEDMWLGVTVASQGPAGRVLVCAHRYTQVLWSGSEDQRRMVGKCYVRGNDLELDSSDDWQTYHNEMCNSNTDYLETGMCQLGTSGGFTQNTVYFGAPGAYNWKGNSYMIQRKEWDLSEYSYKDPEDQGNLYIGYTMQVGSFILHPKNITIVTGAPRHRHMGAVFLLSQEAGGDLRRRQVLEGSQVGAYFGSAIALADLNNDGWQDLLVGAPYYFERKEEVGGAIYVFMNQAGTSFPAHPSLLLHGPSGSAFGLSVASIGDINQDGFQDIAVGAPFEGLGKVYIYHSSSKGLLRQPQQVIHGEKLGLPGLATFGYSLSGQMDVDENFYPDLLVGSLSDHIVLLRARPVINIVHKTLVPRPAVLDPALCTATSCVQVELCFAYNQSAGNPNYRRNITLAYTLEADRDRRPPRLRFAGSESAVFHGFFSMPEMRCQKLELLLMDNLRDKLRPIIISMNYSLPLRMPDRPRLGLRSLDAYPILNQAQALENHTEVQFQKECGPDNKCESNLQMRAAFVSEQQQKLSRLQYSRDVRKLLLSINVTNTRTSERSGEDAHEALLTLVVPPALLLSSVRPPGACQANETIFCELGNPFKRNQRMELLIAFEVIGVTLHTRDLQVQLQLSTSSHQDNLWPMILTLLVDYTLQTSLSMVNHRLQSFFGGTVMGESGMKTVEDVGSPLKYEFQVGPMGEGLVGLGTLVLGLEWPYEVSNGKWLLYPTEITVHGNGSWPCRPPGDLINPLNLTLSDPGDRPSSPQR
T1 sequence (P26006 873-1051 partner limits assumed): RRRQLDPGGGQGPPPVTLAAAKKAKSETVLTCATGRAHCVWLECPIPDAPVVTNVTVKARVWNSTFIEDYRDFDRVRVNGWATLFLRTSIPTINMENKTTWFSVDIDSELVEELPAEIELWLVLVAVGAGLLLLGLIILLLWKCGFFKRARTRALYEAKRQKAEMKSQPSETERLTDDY
T1 sequence (P05556 21-798 partner): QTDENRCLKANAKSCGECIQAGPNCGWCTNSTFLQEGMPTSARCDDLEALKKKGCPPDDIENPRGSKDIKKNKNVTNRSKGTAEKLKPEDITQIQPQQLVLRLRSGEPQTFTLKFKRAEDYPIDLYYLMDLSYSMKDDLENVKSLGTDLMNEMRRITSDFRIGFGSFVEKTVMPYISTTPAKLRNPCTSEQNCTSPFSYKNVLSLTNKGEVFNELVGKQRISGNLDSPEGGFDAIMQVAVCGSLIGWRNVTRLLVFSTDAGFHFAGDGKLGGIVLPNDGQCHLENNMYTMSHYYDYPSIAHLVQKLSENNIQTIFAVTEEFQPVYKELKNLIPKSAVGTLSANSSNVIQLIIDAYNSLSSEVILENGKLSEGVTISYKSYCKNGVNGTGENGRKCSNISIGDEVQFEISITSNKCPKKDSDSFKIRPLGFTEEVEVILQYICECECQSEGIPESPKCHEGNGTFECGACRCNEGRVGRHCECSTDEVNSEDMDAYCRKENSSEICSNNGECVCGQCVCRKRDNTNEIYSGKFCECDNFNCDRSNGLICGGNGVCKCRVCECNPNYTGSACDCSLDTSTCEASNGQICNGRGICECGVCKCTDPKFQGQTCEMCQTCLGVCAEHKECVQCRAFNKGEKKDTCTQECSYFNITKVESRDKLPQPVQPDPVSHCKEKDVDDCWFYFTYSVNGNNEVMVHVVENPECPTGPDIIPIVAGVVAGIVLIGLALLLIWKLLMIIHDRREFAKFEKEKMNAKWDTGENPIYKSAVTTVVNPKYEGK
Description: (§1) Confluent tumor cells (80-90 %) were dissociated with 0.05 % trypsin-EDTA and neutralized with culture medium. To determine the expression of α3 and β1 integrins, 1 μg of anti-α3 or anti-β1 antibody was mixed with 1 million cells for 30 min, followed by anti-mouse IgG-PE incubation and flow cytometry (Coulter XL-MCL). […] Then each sample was washed three times with 1 mL PBS containing 1 % FBS. Samples thereafter were incubated with a 1:500 dilution of streptavidin-PE (1 mg/mL) for 30 min on ice followed by a single wash with 1 mL of PBS containing 1 % FBS. Finally, the samples in PBS were analyzed by flow cytometry. […] The mixture was then incubated with cancer cells followed by streptavidin-PE. Samples were analyzed by flow cytometry, and mean fluorescence intensity (MFI) was decided for each individual sample. […] For blocking experiments, the samples were incubated with non-biotinylated LXY30, anti-α3, or anti-β1 antibody for 30 min prior to incubation with 20 nM biotinylated LXY30.

H3255 = assay: LXY30 binding by flow cytometry; design: species or system human; settings: 1µM LXY30; H3255, lung, adenocarcinoma
Description: as §1, with “(80–90” for “(80-90”
(§2) *(MFI W/ LXY30)/ (MFI W/O LXY30): Mean Fluorescence Intensity of cells incubated with 1µM LXY30 divided by Mean Fluorescence Intensity of cells without incubation with LXY30.
(§3) Mean Fluorescence Intensity (MFI) was used as the quantitative measurement. The binding strength was grouped into five categories based on the value. “0”: 1 “1+”: 1.1~4.9 “2+”: 5~19.9 “3+”: 20~79.9 “4+”: > or = 80-fold

MDA-MB 231 = assay: LXY30 binding by flow cytometry; design: species or system human; settings: 1µM LXY30; MDA-MB 231, breast, basal like
Description: as §1, with “(80–90” for “(80-90”
as §2, §3

HCC827 = assay: LXY30 binding by flow cytometry; design: species or system human; settings: 1µM LXY30; HCC827, lung, adenocarcinoma
Description: as §1, with “(80–90” for “(80-90”
as §2, §3

H2228 = assay: LXY30 binding by flow cytometry; design: species or system human; settings: 1µM LXY30; H2228, lung, adenocarcinoma
Description: as §1, with “(80–90” for “(80-90”
as §2, §3

MCF7 = assay: LXY30 binding by flow cytometry; design: species or system human; settings: 1µM LXY30; MCF7, breast, luminal A
Description: as §1, with “(80–90” for “(80-90”
as §2, §3

A549 = assay: LXY30 binding by flow cytometry; design: species or system human; settings: 1µM LXY30; A549, lung, adenocarcinoma
Description: as §1, with “(80–90” for “(80-90”
as §2, §3

SKBR3 = assay: LXY30 binding by flow cytometry; design: species or system human; settings: 1µM LXY30; SKBR3, breast, HER2
Description: as §1, with “(80–90” for “(80-90”
as §2, §3

H1975 = assay: LXY30 binding by flow cytometry; design: species or system human; settings: 1µM LXY30; H1975, lung, adenocarcinoma
Description: as §1, with “(80–90” for “(80-90”
as §2, §3

T47D = assay: LXY30 binding by flow cytometry; design: species or system human; settings: 1µM LXY30, breast, luminal A
Description: as §1, with “(80–90” for “(80-90”
as §2, §3

BT-20 = assay: LXY30 binding by flow cytometry; design: species or system human; settings: 1µM LXY30; BT-20, breast, basal like
Description: as §1, with “(80–90” for “(80-90”
as §2, §3

H460 = assay: LXY30 binding by flow cytometry; design: species or system human; settings: 1µM LXY30; H460, lung, large cell
Description: as §1, with “(80–90” for “(80-90”
as §2, §3

H1650 = assay: LXY30 binding by flow cytometry; design: species or system human; settings: 1µM LXY30; H1650, lung, bronchoalveolar
Description: as §1, with “(80–90” for “(80-90”
as §2, §3

[3] = molecular target: T2, α3 subunit of α3β1 integrin on U-87MG cells (Homo sapiens, UniProt P26006); assay: Blocking of LXY30-biotin binding to U-87MG cells, flow cytometry; settings: 100 μM free peptide pre-incubated 30 min before 20 nM LXY30-biotin
T2 construct: we incubated U-87MG cells which express α3β1 integrin; endogenous in cells; host or cells: U-87MG human glioblastoma cells
T2 sequence (P26006 33-872 limits assumed): as the sequence (P26006 33-872 limits assumed) above
T2 sequence (P26006 873-1051 partner limits assumed): as the sequence (P26006 873-1051 partner limits assumed) above
T2 sequence (P05556 21-798 partner): as the sequence (P05556 21-798 partner) above
Description: as §1, with “(80–90” for “(80-90”
Fig. 2 Synthesis and chemical structures of several peptide conjugates and binding specificity of LXY30 to U-87MG cells. The synthesis and chemical structures of peptide conjugates LXY30-biotin, LXY30-FITC, and scrambled-LXY30-FITC (S-LXY30-FITC) used for in vitro and in vivo characterization, as well as imaging studies were shown (a). […]

[4] = In vitro stability assay in human plasma; type: in vitro ADME; settings: 90% human plasma (EDTA, healthy donors); 200 µM in 90% human plasma, 37°C, up to 8 days, RP-HPLC; t1/2=1/kobs·ln(2)
Description: Figure S3. The in vitro stability of LXY30 in human plasma. LXY30 was incubated with 90% human plasma from healthy donor at 37°C for up to 8 days. The peptide concentrations were determined by integration of the LXY30 peak (area) from reversed-phase high-performance liquid chromatography (RP-HPLC) chromatograms at UV 214 nm. The half-life of LXY30 in the plasma was calculated as 16.0 days using the formula t1/2=1/kobs·ln(2). Assays were performed in triplicate.
Human plasma was separated from the peripheral blood collected in the EDTA-containing blood collection tube from healthy donors. One hundred microliters of LXY30 solution (2 mM in water) was mixed with 900 µL of plasma (final concentration of LXY30 was 200 µM) and incubated at 37°C under sterile conditions. […] A control plasma sample without LXY30 but treated in the same manner was also analyzed. […]
RP-HPLC analysis was performed on the Waters 2996 HPLC system equipped with a Luna® analytical column from Phenomenex (5 µm, C18, 100 A°, 250 x 4.6 mm). […] The relative concentrations of the remaining LXY30 were analyzed by the integration of the absorbance at 214 nm (area).
Half-life (t1/2) for LXY30 in the plasma solution was calculated from plots of the natural logarithm of the residual concentration against time using the formula t1/2=1/kobs·ln(2), where kobs is the apparent first order rate constant for the observed degradation.

cdG-Tyr(3-NO2)-G-Hyp-Nc [LXY3]
improvement in tumor targeting over LXY1 [1]: did not show improvement

NC(=O)C[C@@H]1NC(=O)[C@@H]2C[C@@H](O)CN2C(=O)CNC(=O)[C@H](Cc2cc(F)cc(F)c2)NC(=O)CNC(=O)[C@@H](CC(=O)O)NC(=O)[C@H](N)CSSC[C@H](C(N)=O)NC1=O [LXY4, cdG-Phe(3,5-diF)-G-Hyp-Nc] (H-[dC][dD]G[Phe(3,5-F2)]G[Hyp]N[dC]-NH2; disulfide 1-8; N-terminus assumed)
Relative binding index [2]: 1.36 ± 0.11 | IC50 [2]: 410 ± 30 nM | improvement in tumor targeting over LXY1 [1]: did not show improvement

N=C(N)NCCC[C@H](NC(=O)[C@H]1CSSC[C@@H](N)C(=O)N[C@H](CC(=O)O)C(=O)NCC(=O)N[C@@H](Cc2cc(F)c(F)c(F)c2)C(=O)NCC(=O)N2C[C@H](O)C[C@H]2C(=O)N[C@@H](CC(N)=O)C(=O)N1)C(N)=O [LXY7] (H-[dC][dD]G[Phe(3,4,5-F3)]G[Hyp]N[dC]R-NH2; disulfide 1-8; N-terminus assumed)
Relative binding index [2]: 1.62 ± 0.10 | IC50 [2]: 130 ± 12 nM

N=C(N)NCCC[C@H](NC(=O)[C@H]1CSSC[C@@H](N)C(=O)N[C@H](CC(=O)O)C(=O)NCC(=O)N[C@@H](Cc2cc(F)cc(F)c2)C(=O)NCC(=O)N2C[C@H](O)C[C@H]2C(=O)N[C@@H](CC(N)=O)C(=O)N1)C(N)=O [LXY30, cdG-Phe(3,5-diF)-G-Hyp-NcR] (H-[dC][dD]G[Phe(3,5-F2)]G[Hyp]N[dC]R-NH2; disulfide 1-8; N-terminus assumed)
fold higher binding affinity compared to LXY1 ([2]; U-87MG cells, from IC50 values): 44 fold | Relative binding index [2]: 1.68 ± 0.10 | IC50 [2]: 80 ± 10 nM | MFI of tumor, fold over LXY1 ([1]; tail vein, 1.8 nmol complex, ROI on xenograft tumor): 1.4 folds | (MFI W/ LXY30)/ (MFI W/O LXY30) (H3255): 2+ (“2+”: 5~19.9) | (MFI W/ LXY30)/ (MFI W/O LXY30) (MDA-MB 231): 4+ (“4+”: > or = 80-fold) | (MFI W/ LXY30)/ (MFI W/O LXY30) (HCC827): 4+ (“4+”: > or = 80-fold) | (MFI W/ LXY30)/ (MFI W/O LXY30) (H2228): 4+ (“4+”: > or = 80-fold) | (MFI W/ LXY30)/ (MFI W/O LXY30) (MCF7): 2+ (“2+”: 5~19.9) | (MFI W/ LXY30)/ (MFI W/O LXY30) (A549): 4+ (“4+”: > or = 80-fold) | (MFI W/ LXY30)/ (MFI W/O LXY30) (SKBR3): 1+ (“1+”: 1.1~4.9) | (MFI W/ LXY30)/ (MFI W/O LXY30) (H1975): 4+ (“4+”: > or = 80-fold) | (MFI W/ LXY30)/ (MFI W/O LXY30) (T47D): 1+ (“1+”: 1.1~4.9) | (MFI W/ LXY30)/ (MFI W/O LXY30) (BT-20): 2+ (“2+”: 5~19.9) | (MFI W/ LXY30)/ (MFI W/O LXY30) (H460): 1+ (“1+”: 1.1~4.9) | (MFI W/ LXY30)/ (MFI W/O LXY30) (H1650): 4+ (“4+”: > or = 80-fold) | blocking of LXY30-biotin binding by free peptide [3]: inhibited or prevented | half-life at 200 µM [4]: 16 days
